Source: PMC8241751, “Influence of the Dabcyl group on the cellular uptake of cationic peptides: short oligoarginines as efficient cell-penetrating peptides” (Amino Acids, 2021)
Where a SMILES comes first, the peptide text is derived from it. The star is where a group is joined. 5FAM = O=C1OC2(c3ccc(O)cc3Oc3cc(O)ccc32)c2ccc(C(=O)*)cc21; X1 = CN(C)c1ccc(/N=N/c2ccc(C(=O)*)cc2)cc1

Assays:
CHO-K1 cells = assay: In vitro cytotoxicity assay (CCK-8); assay type: cell-based, Chinese Hamster; details: different concentrations (0-20 µM), 1 h, 37 °C
Experimental: Cytotoxicity was determined with the Cell Counting Kit 8 (CCK-8) from Dojindo Molecular Technologies using CHO-K1 cells. This colorimetric assay allows to measure the viability of cells. 96-well plates were inoculated with 100 μL/well of a suspension of cells (2 × 10^4 cells/well). […] After washing, the cells were incubated with 100 μL of 10% CCK-8 in DMEM for 3 h and the absorbance was measured at λ= 450 nm with a microplate reader (Polarstar Optima). Controls corresponded to untreated cells with DMEM (negative control, 100% viability) and cells treated with 0.1% of Triton X-100 (positive control, 0% viability).

HeLa cells = assay: Confocal microscopy of internalisation into HeLa cells; assay type: cell-based, human; details: 5 μM, serum free (–) medium, 37 °C
Experimental: HeLa cells (2.0 × 10^5 cells) seeded in 35-mm glass-bottomed dishes (Iwaki) were cultured at a 37 °C incubator for 24 h. The cells were then incubated with peptide in α-MEM( +) and α-MEM(–) for 30 min at 37 °C or 4 °C. After washing with PBS( +) containing 0.5% (w/v) heparin, intracellular distribution of the fluorescently-labelled peptides was analysed without fixing using a confocal microscope (FV1000, Olympus). For time-lapse imaging, the cells were placed at 37 °C in a microchamber (MI-IBC-IF, Olympus) attached on the stage of the inverted microscope. The cells were then treated with 5 µM of Dabcyl–Arg6–Lys(Rh)–NH2 or Dabcyl–Arg4–Lys(Cf)–NH2 in α-MEM( +) or α-MEM(–). Time 0 represents the image immediately after the addition of conjugates.

SMILES: CN(C)c1ccc(/N=N/c2ccc(C(=O)N[C@@H](CCCNC(=N)N)C(=O)N[C@@H](CCCNC(=N)N)C(=O)N[C@@H](CCCNC(=N)N)C(=O)N[C@@H](CCCNC(=N)N)C(=O)N[C@@H](CCCNC(=N)N)C(=O)N[C@@H](CCCNC(=N)N)C(=O)N[C@@H](CCCCNC(=O)c3ccc4c(c3)C(=O)OC43c4ccc(O)cc4Oc4cc(O)ccc43)C(N)=O)cc2)cc1 [Dabcyl–Arg6–Lys(Cf)–NH2] (X1-RRRRRRK(5FAM)-NH2)
- Cytotoxic effect on CHO-K1 cells (CHO-K1 cells): no cytotoxic effect
- Time of binding to the cell membrane (HeLa cells): 0.5 min
- Time of internalisation (HeLa cells): ≤ 1.5 min
